# Measured values from patent US10100016B2, “Condensed ring derivative, and preparation method, intermediate, pharmaceutical composition and use thereof” (SHANGHAI YINGLI PHARMACEUTICAL CO., LTD., priority 2015, dated 2018).
# Target: hURAT1 (Homo sapiens (Human), UniProt Q96S37)
# Test: 14C-uric acid transport inhibition in transfected HEK293/hURAT1 cells
# Assay type: cell-based
# Settings: 14C-uric acid uptake, 10 mins incubation, read-out: IC50 value against hURAT1
# Description: Human embryonic kidney cells (HEK293) was incubated in DMEM tissue culture medium, at 37° C., under 5% CO2 and 95% air atmosphere. […] Transfected HEK293/hURAT1 cells were used to the test for ^14C-uric acid transport activity.
# The uric acid [8-14C] […] The incubating solution was removed after 10 mins incubation, followed by adding 100 μL cold washing buffer, after washing with this buffer for 3 times, the buffer was completely removed from the well.
# hURAT1, sequence (Q96S37 whole entry): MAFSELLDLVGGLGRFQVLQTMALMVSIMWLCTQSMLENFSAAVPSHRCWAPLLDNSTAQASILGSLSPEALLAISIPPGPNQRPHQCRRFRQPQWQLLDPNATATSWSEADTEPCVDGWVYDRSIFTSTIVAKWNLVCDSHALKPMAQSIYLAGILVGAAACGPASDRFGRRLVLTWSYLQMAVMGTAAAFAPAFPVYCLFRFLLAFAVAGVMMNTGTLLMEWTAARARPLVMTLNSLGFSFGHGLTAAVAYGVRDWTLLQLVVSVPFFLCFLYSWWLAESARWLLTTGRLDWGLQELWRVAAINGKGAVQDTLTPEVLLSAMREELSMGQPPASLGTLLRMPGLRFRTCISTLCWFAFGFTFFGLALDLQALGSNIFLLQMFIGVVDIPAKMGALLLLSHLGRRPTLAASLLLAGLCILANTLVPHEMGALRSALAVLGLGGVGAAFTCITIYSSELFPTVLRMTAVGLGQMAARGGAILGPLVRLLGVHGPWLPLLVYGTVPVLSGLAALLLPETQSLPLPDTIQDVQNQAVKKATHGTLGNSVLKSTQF
row,Structure (SMILES),IC50 [nM]
1,"CC(CC(=O)O)c1cc2c(-c3ccc(C#N)c4ccccc34)cncc2s1 (racemic) [Compound 42, 3-[4-(4-Cyanonaphthalen-1-yl)thieno[2,3-c]pyridin-2-yl] butyric Acid]",24
2,"CC(CC(=O)O)c1cc2cncc(-c3ccc(C#N)c4ccccc34)c2s1 (racemic) [Compound 52, 3-[7-(4-Cyanonaphthalen-1-yl)thieno[3,2-c]pyridine-2-yl]-butyric Acid]",37
3,"N#Cc1ccc(-c2cncc3ccc(C(=O)O)cc23)cc1 [Compound 1, 4-(4-cyanophenyl)isoquinoline-6-carboxylic Acid]",2530
4,"N#Cc1ccc(-c2cncc3ccc(CCC(=O)O)cc23)cc1 [Compound 2, 3-[4-(4-Cyanophenyl)isoquinolin-6-yl]propionic Acid]",161
5,"N#Cc1ccc(-c2cncc3ccc(CC(=O)O)cc23)c2ccccc12 [Compound 3, 2-[4-(4-Cyanonaphthalen-1-yl)isoquinolin-6-yl]acetic Acid]",327
6,CC(C)(Sc1ccc2cncc(-c3ccc(C#N)cc3)c2c1)C(=O)O [Compound 4],15
7,"CC(C)(Oc1ccc2cncc(-c3ccc(C#N)cc3)c2c1)C(=O)O [Compound 6, 2{[4-(4-Cyanophenyl)isoquinolin-6-yl]oxy}-2-methylpropionic Acid]",214
8,"CC(C)(Sc1ccc2cncc(-c3ccc(C#N)cc3F)c2c1)C(=O)O [Compound 8, 2{[4-(4-Cyano-2-fluorophenyl)isoquinolin-6-yl]thio}-2-methylpropionic Acid]",57
9,"CC(C)(Sc1cc(F)c2cncc(-c3ccc(C#N)c4ccccc34)c2c1)C(=O)O [Compound 9, 2{[4-(4-Cyanonaphthalen-1-yl)-8-fluoroisoquinolin-6-yl]thio}-2-methylpropionic Acid]",127
10,"CC(C)(Sc1ccc2cncc(-c3cccc4c(C#N)cccc34)c2c1)C(=O)O [Compound 10, 2{[4-(5-Cyanonaphthalen-1-yl)isoquinolin-6-yl]thio}-2-methylpropionic Acid]",19
11,"CC(C)(Sc1ccc2cncc(-c3ccc(C#N)c4c3OCCO4)c2c1)C(=O)O [Compound 11, 2-{[4-(8-Cyano-2,3-dihydro-1,4-benzodioxan-5-yl)isoquinolin-6-yl]thio}-2-methylpropionic Acid]",62
12,"CC(C)(Sc1ccc2cncc(-c3ccc(C#N)c4ccc(F)cc34)c2c1)C(=O)O [Compound 12, 2-{[4-(4-Cyano-7-fluoronaphthalen-1-yl)isoquinolin-6-yl]thio}-2-methyl propionic Acid]",71
13,"CC(CC(=O)O)c1ccc2cncc(-c3ccc(C#N)cc3)c2c1 (centres unmarked) [Compound 13, 3-[4-(4-Cyanophenyl)isoquinolin-6-yl]butyric Acid]",189
14,"N#Cc1ccc(-c2cncc3ccc(/C=C/C(=O)O)cc23)c2ccccc12 [Compound 14, (2E)-3-[4-(4-Cyanonaphthalen-1-yl)isoquinolin-6-yl]acrylic Acid]",385
15,"CC(CC(=O)O)c1ccc2cncc(-c3ccc(C#N)c4ccccc34)c2c1 (centres unmarked) [Compound 15, 3-[4-(4-Cyanonaphthalen-1-yl)isoquinolin-6-yl]butyric Acid]",24
16,"CC(Cc1ccc2cncc(-c3ccc(C#N)c4ccccc34)c2c1)C(=O)O (centres unmarked) [Compound 16, 3-[4-(4-Cyanonaphthalen-1-yl)isoquinolin-6-yl]-2-methyl propionic acid]",15
17,"CC(C)(Cc1ccc2cncc(-c3ccc(C#N)c4ccccc34)c2c1)C(=O)O [Compound 17, 3-[4-(4-Cyanonaphthalen-1-yl)isoquinolin-6-yl]-2,2-dimethyl propionic Acid]",12
18,"CC(Sc1ccc2cncc(-c3ccc(C#N)c4ccccc34)c2c1)C(=O)O (centres unmarked) [Compound 21, 2-{[4-(4-Cyanonaphthalen-1-yl)isoquinolin-6-yl]thio}propionic Acid]",100
19,"CC(C)(Sc1ccc2cncc(-c3ccc(C#N)c(Cl)c3)c2c1)C(=O)O [Compound 22, 2-{[4-(3-Chloro-4-cyanophenyl)isoquinolin-6-yl]thio}-2-methyl propionic Acid]",55

row,Structure (SMILES),IC50 [nM]
1,"CC(C)(Sc1ccc2cncc(-c3ccc(C#N)cc3Cl)c2c1)C(=O)O [Compound 23, 2-{[4-(2-Chloro-4-cyanophenyl)isoquinolin-6-yl]thio}-2-methyl propionic Acid]",18
2,"N#Cc1ccc(-c2cncc3ccc(SC4(C(=O)O)CCC4)cc23)c2ccccc12 [Compound 24, 1-{[4-(4-cyanonaphthalen-1-yl)isoquinolin-6-yl]thio}cyclobutane-1-carboxylic Acid]",18
3,"Cc1nc(Cc2c(Cl)cccc2Cl)n2cc(CCC(=O)O)ccc12 [Compound 25, 3-{3-[(2,6-dichlorophenyl)methyl]-1-methylimidazole[1,5-a]pyridine-6-yl}propionic Acid]",289
4,"Cc1nn(Cc2c(Cl)cccc2Cl)c2cc(SC(C)(C)C(=O)O)ccc12 [Compound 26, 2-({1-[(2,6-dichlorophenyl)methyl]-3-methyl-1H-indazol-6-yl}thio)-2-methyl propionic Acid]",119
5,"CC(C)(Sc1ccc2nccn2c1-c1ccc(C#N)cc1)C(=O)O [Compound 27, 2-{[5-(4-Cyanophenyl)imidazo[1,2-a]pyridin-6-yl]thio}-2-methyl propionic Acid]",1730
6,"N#Cc1ccc(-c2cncc3cc(C(=O)O)sc23)c2ccccc12 [Compound 29, 7-(4-Cyanonaphthalen-1-yl)thieno[3,2-c]pyridin-2-formic Acid]",2860
7,"N#Cc1ccc(-c2cncc3cc(CCC(=O)O)sc23)c2ccccc12 [Compound 30, 3-[7-(4-Cyanonaphthalen-1-yl)thieno[3,2-c]pyridin-2-yl]propionic acid]",87
8,"N#Cc1ccc(-c2cncc3cc(CC(=O)O)sc23)c2ccccc12 [Compound 31, 2-[7-(4-Cyanonaphthalen-1-yl)thieno[3,2-c]pyridin-2-yl]acetic Acid]",3420
9,"N#Cc1ccc(-c2cncc3cc(CC(=O)O)sc23)cc1 [Compound 32, 2-[7-(4-Cyanophenyl)thieno[3,2-c]pyridin-2-yl]acetic Acid]",5400
10,"CC(C)(Cc1cc2cncc(-c3ccc(C#N)cc3)c2s1)C(=O)O [Compound 33, 3-[7-(4-Cyanophenyl)thieno[3,2-c]pyridin-2-yl]-2,2-dimethylpropionic Acid]",42
11,"CC(C)(Cc1cc2cncc(-c3ccc(C#N)c4ccccc34)c2s1)C(=O)O [Compound 34, 3-[7-(4-Cyanonaphthalen-1-yl)thieno[3,2-c]pyridin-2-yl]-2,2-dimethylpropionic Acid]",139
12,"CC(C)(Cc1cc2c(-c3ccc(C#N)c4ccccc34)cccc2s1)C(=O)O [Compound 38, 3-[4-(4-Cyanonaphthalen-1-yl)-1-benzothiophen-2-yl]-2,2-dimethyl propionic Acid]",209
13,"CC(C)(Cc1cc2c(Cc3c(Cl)cccc3Cl)cccc2s1)C(=O)O [Compound 40, 3-{4-[(2,6-Dichlorophenyl)methyl]-1-benzothiophen-2-yl]-2,2-dimethyl propionic Acid]",3470
14,"CC(O)(CC(=O)O)c1cc2c(-c3ccc(C#N)c4ccccc34)cncc2s1 (centres unmarked) [Compound 41, 3-[4-(4-Cyanonaphthalen-1-yl)thieno[2,3-c]pyridin-2-yl]-3-hydroxyl butyric Acid]",934
15,"CC(C)(Cc1cc2c(-c3ccc(C#N)c4ccccc34)cncc2s1)C(=O)O [Compound 47, 3-[4-(4-Cyanonaphthalen-1-yl)thieno[2,3-c]pyridin-2-yl]-2,2-dimethyl propionic Acid]",18
16,"CC(C)(C(=O)O)c1ccc2cncc(-c3ccc(C#N)c4ccccc34)c2c1 [Compound 49, 2-[4-(4-Cyanonaphthalen-1-yl)isoquinolin-6-yl]-2-methyl propionic acid]",116
17,"CC(C)(Sc1ccc2cnnc(-c3ccc(C#N)c4ccccc34)c2c1)C(=O)O [Compound 50, 2-{[4-(4-Cyanonaphthalen-1-yl)phthalazin-6-yl]thio}-2-methyl propionic Acid]",971
18,"CC(C)(Cc1ccc2cncc(-c3ccc(C#N)cc3)c2c1)C(=O)O [Compound 51, 3-[4-(4-Cyanophenyl)isoquinolin-6-yl]-2,2-dimethyl propionic Acid]",19
19,"CC(C)(Sc1ccncc1-c1ccc(C#N)c2ccccc12)C(=O)O [Verinurad (RDEA3170), reference compound]",113
